Laboratory results as given in the supplement of paper PMC10307832.

Compound: O=C(Nc1cccc(C(F)(F)F)c1)Nc1cc(S(=O)(=O)NC2CC2)ccc1-c1ccsc1 [AGI-6780] + COc1cc2c(Oc3ccc(NC(=O)C4(C(=O)Nc5ccc(F)cc5)CC4)cc3F)ccnc2cc1OCCCN1CCOCC1 [Foretinib] (partner 0.25 µM)
Experiment: relative viability (nuclei count vs DMSO), 5 days (fraction); higher = more cells survive
In short: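 Lung cancer cell lines were pin-tool dosed in 1536-well plates on the day after seeding, with either a lone drug or a fixed anchor-drug dose plus five library-drug doses (not always all listed) in √10 steps. Nuclei were counted on 4× images after 5 days. Relative viability is the ratio of treated-well to vehicle-well nuclei counts, with each value a median of duplicate plates.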

Cell Line | relative viability (first compound 0.08 µM) | relative viability (first compound 0.253 µM) | relative viability (first compound 0.8 µM) | relative viability (first compound 2.53 µM) | relative viability (first compound 8 µM)
LOU-NH91 | 0.946 | 0.908 | 0.961 | 0.93 | 0.893
HCC-15 | 1.1 | 1.03 | 1.1 | 0.871 | 0.968
HCC-827 | 1.09 | 1.09 | 1.1 | 0.938 | 1.03
NCI-H1703 | – | 0.327 | 0.333 | 0.36 | 0.393
NCI-H2405 | 1.06 | 1.01 | 0.746 | 1.02 | 1
PC-3 [JPC-3] | 1.08 | 0.986 | 0.969 | 1.05 | 1.01
NCI-H2085 | 0.995 | 0.882 | 1.05 | 1.02 | 0.903
201T | 1.09 | 1.08 | 1.2 | 1.09 | 1.05
NCI-H1975 | 0.979 | 0.944 | 0.897 | – | 0.896
NCI-H2023 | 0.984 | 0.823 | 0.829 | 0.777 | 0.825
BEN | 0.481 | 0.654 | 0.662 | 0.533 | 0.619
RERF-LC-KJ | 0.871 | 0.904 | 0.88 | 0.597 | 0.909
SK-MES-1 | 0.896 | 1.01 | 0.773 | 0.709 | 0.833
PC-14 | 0.902 | 1.1 | 1.02 | 0.941 | 0.979
NCI-H1437 | 1.2 | 1.27 | 1.21 | 1.31 | 1.15
NCI-H1993 | 0.682 | 0.838 | 0.851 | 0.621 | 0.771
LK-2 | 1.23 | 1.15 | 1.21 | – | 1.53
NCI-H838 | 1.13 | 1.02 | 0.987 | 0.895 | 1.02
IA-LM | 1.28 | 1.13 | 1.21 | 1.13 | 1.15
NCI-H1734 | 0.814 | 0.954 | 0.83 | 0.663 | 0.819
NCI-H1944 | 1.03 | 0.885 | 0.93 | – | 0.869
CAL-12T | 1 | 1.15 | 1.13 | 1.34 | 1.11
LXF-289 | 1 | 1 | 1.04 | 0.954 | 0.934
NCI-H661 | 1.03 | 0.986 | 1.03 | 0.873 | 1.05
A-427 | 0.991 | 0.951 | 1.15 | 0.825 | 1.19

Cell Line | relative viability (first compound 0.08 µM) | relative viability (first compound 0.253 µM) | relative viability (first compound 0.8 µM) | relative viability (first compound 2.53 µM) | relative viability (first compound 8 µM)
COR-L23 | 1.03 | 0.948 | 0.883 | 1.06 | 0.837
NCI-H460 | 0.98 | 1.04 | 1.04 | 0.998 | 0.991
NCI-H2228 | 1 | 0.767 | 0.598 | 0.709 | 0.853
EKVX | 0.684 | 0.91 | 0.756 | 0.399 | 0.849
HCC-78 | – | 0.53 | 0.676 | 0.606 | 0.688
NCI-H520 | 0.684 | 0.942 | 1.07 | 0.655 | 0.77
UMC-11 | 1.03 | 1.03 | 1.23 | – | 1.19
NCI-H441 | 1.03 | 1.16 | 1.06 | 0.754 | 0.844
EMC-BAC-2 | 1.05 | 1.04 | 0.961 | 0.842 | 1.18
NCI-H1755 | 0.986 | 0.975 | 0.85 | 0.874 | 0.905
SW 900 | 0.953 | 0.763 | 1.03 | 0.81 | 0.917
ABC-1 | 1.13 | 1.17 | 1.11 | 1.07 | 0.941
NCI-H647 | 1.1 | 1.2 | 1.31 | 1.11 | 1.4
H3255 | 0.928 | 0.798 | 1.03 | 0.909 | 0.85
NCI-H596 | 0.978 | 1.01 | 0.788 | – | 1.06
NCI-H1915 | 1.04 | 1.11 | 1.09 | 1.1 | 1.03
NCI-H2009 | 1.23 | 1.23 | 1.19 | 1.24 | 1.14
NCI-H650 | 1.06 | 1.05 | 1.04 | 0.961 | 1.07
NCI-H1793 | 0.729 | 0.745 | 0.771 | 0.555 | 0.603
NCI-H1650 | 1.07 | 1.23 | 1.06 | 1.24 | 1.13
NCI-H1395 | 0.917 | 0.986 | 0.979 | 0.901 | 0.931
NCI-H1355 | 0.956 | 0.98 | 1.06 | 0.911 | 1.04
HOP-62 | 1.08 | 1.06 | 1.14 | 1.16 | 1.15
NCI-H23 | 1.12 | 0.968 | 1.02 | 0.96 | 0.865
NCI-H2170 | 0.994 | 0.978 | 1.1 | 0.928 | 0.984

Cell Line | relative viability (first compound 0.08 µM) | relative viability (first compound 0.253 µM) | relative viability (first compound 0.8 µM) | relative viability (first compound 2.53 µM) | relative viability (first compound 8 µM)
EPLC-272H | – | 0.762 | 0.891 | 0.489 | 0.619
A549 | 1.04 | 0.956 | 0.88 | 0.729 | 1.07
NCI-H2347 | 0.607 | 0.828 | 0.831 | 0.79 | 1.57
SW 1573 | 0.881 | 1.01 | 0.93 | 0.836 | 0.903
NCI-H358 | 0.631 | 0.688 | 0.647 | 0.573 | 0.79
LCLC-103H | 0.883 | 0.745 | 0.702 | 0.652 | 0.748
HCC-366 | 0.857 | 0.951 | 0.96 | 0.881 | 0.828
NCI-H3122 | 0.971 | 0.959 | 1.08 | 1.03 | 0.983
NCI-H1299 | 1.09 | 1.07 | 1.07 | 1.05 | 1.12
COR-L 105 | 1.09 | 0.922 | 0.962 | 1.25 | 0.981
Calu-6 | 0.88 | 0.871 | 0.96 | 0.89 | 0.885
NCI-H1563 | 0.901 | 0.977 | 1.02 | 0.89 | 0.992
NCI-H2087 | 1.04 | 1.24 | 1.17 | 1.17 | 1.08
LC-2-ad | 0.939 | 0.849 | 1.04 | 0.913 | 0.901
HARA | 0.957 | 0.864 | 0.963 | 0.83 | 0.91
NCI-H727 | 1.07 | 0.982 | 0.98 | 0.626 | 1.02
LCLC-97TM1 | 1.09 | 0.929 | 0.929 | 0.864 | 0.84
LU99A | 0.915 | 0.813 | 0.874 | 0.633 | 0.738
NCI-H1651 | 0.87 | 0.824 | 0.715 | 0.692 | 0.796
NCI-H322M | 1.06 | 1.01 | 1.1 | 1.07 | 0.982
SK-LU-1 | 0.873 | 0.859 | – | 0.737 | 0.831
ChaGo-K-1 | 0.986 | 0.977 | 0.946 | 0.751 | 0.948
NCI-H1666 | 0.945 | 0.999 | 0.939 | 0.929 | 1.04
NCI-H2126 | 1.32 | 1.09 | 1.08 | 1.08 | 1.18
